Structures can show the parent of a compound that is named as a salt.
Assays:
Type in all cases: cell-based, human
LU65A = assay: CellTiter-Glo Reagent cancer cell line proliferation assay, LU65A; conditions: KRAS(G12C) heterozygous
Text: (§1) The following cancer cell lines were employed: • AsPC-1 human pancreatic adenocarcinoma, homozygous KRAS(G12D), (ATCC, #CRL-1682); A-427 human lung carcinoma, heterozygous KRAS(G12D), (ATCC, #HTB-53); AGS human gastric adenocarcinoma, heterozygous KRAS(G12D), (ATCC, #CRL-1739); GP2D human colon adenocarcinoma, heterozygous KRAS(G12D), (Sigma Aldrich, 95090714); SW1990 human pancreatic adenocarcinoma, homozygous KRAS(G12D), (ATCC, #CRL2172); LU65A human lung giant cell carcinoma, heterozygous KRAS(G12C), (JCRB Cell Bank, #JCRB0054); NCIH727 human lung carcinoid, heterozygous KRAS(G12V), (ATCC, #CRL-5815); MKN1 human gastric adenosquamous carcinoma KRAS (wt), (JCRB Cell Bank, #JCRB0252). Cell lines were cultured according to ATCC, JCRB and Sigma Aldrich recommendations.
(§2) Cells were plated in 96-well tissue culture plates at 4,000 cells/well and incubated at 37° C./5% CO2 for 24 hr in 100 μl of media. 3-fold serial dilutions of each test compound were prepared ranging from 20 μM to 1.02 nM. Cells were then treated with test compounds at various concentrations with a final concentration of 0.5% DMSO/well, and then incubated at 37° C./5% CO2 for 24 hr. 100 μl of CellTiter-Glo® Reagent (Promega Corporation, Madison, WI) was added to each well and processed according manufacturer's protocol. Results were analyzed and IC50-values were calculated in GraphPad 7 software.

AGS = assay: CellTiter-Glo Reagent cancer cell line proliferation assay, AGS; conditions: KRAS(G12D) heterozygous
Text: as §1, §2

NCIH727 = assay: CellTiter-Glo Reagent cancer cell line proliferation assay, NCIH727; conditions: NCIH727, KRAS(G12V) heterozygous
Text: as §1, §2

Structure (SMILES) | IC50 (LU65A; 24 hr) [nM] | IC50 (AGS; 24 hr) [nM] | IC50 (NCIH727; 24 hr) [nM] | IC50 (LU65A; Homo sapiens, 24 h) [nM] | IC50 (AGS; Homo sapiens, 24 h) [nM] | IC50 (NCIH727; Homo sapiens, NCI-H727, 24 h) [nM]
C#Cc1c(F)ccc2cc(O)cc(-c3ncc4c(N5CC6CCC(C5)N6C(=O)CC(C)(C)C#N)nc(OCC5(CN6CCN(CC7CCN(c8ccc9c(c8)CN(C8CCC(=O)NC8=O)C9=O)CC7)CC6)CC5)nc4c3F)c12 (stereo not shown) [Compound 131] | – | – | – | < 100 | < 100 | < 100
C#Cc1c(F)ccc2cc(O)cc(-c3nc(OC)c4c(N5CC6CCC(C5)N6C(=O)CC(C)C#N)nc(OCC5(CN6CCN(CC7CCN(c8ccc9c(c8)CN(C8CCC(=O)NC8=O)C9=O)CC7)CC6)CC5)nc4c3F)c12 (stereo not shown) [Compound 135] | – | – | – | < 100 | < 100 | < 100
N#Cc1c(N)sc2c1C1(CCC2)CCCc2c(-c3nc(Cl)cc(OCC4(CN5CCN(CC6CCN(c7ccc8c(c7)CN(C7CCC(=O)NC7=O)C8=O)CC6)CC5)CC4)n3)noc21 (stereo not shown) [Compound 156] | – | – | – | < 100 | < 100 | < 100
C#Cc1c(F)ccc2cc(O)cc(-c3nc(OC)c4c(N5CCCOC6CC65)nc(OCC5(CN6CCN(CC7CCN(c8ccc9c(c8)CN(C8CCC(=O)NC8=O)C9=O)CC7)CC6)CC5)nc4c3F)c12 (stereo not shown) [Compound 157] | – | – | – | < 100 | < 100 | < 100
C#Cc1c(F)ccc2cc(O)cc(-c3nc(OC(F)(F)F)c4c(N5CC6CCC(C5)N6C(=O)CCC#N)nc(OCC5(CN6CCN(CC7CCN(c8ccc9c(c8)CN(C8CCC(=O)NC8=O)C9=O)CC7)CC6)CC5)nc4c3F)c12 (stereo not shown) [Compound 151] | – | – | – | < 100 | < 100 | < 100
C#Cc1cccc2cccc(-c3ncc4c(N5CC6CCC(C5)N6)nc(OCCN5CCN(Cc6ccc7c(c6)C(=O)N(C6CCC(=O)NC6=O)C7=O)CC5)nc4c3F)c12 (stereo not shown) [Compound 1, 5-((4-(2-((4-(3,8-diazabicyclo[3.2.1]octan-3-yl)-7-(8-ethynylnaphthalen-1-yl)-8-fluoropyrido[4,3-d]pyrimidin-2-yl)oxy)ethyl)piperazin-1-yl)methyl)-2-(2,6-dioxopiperidin-3-yl) isoindoline-1,3-dione hydrochloride] | – | – | – | – | > 1000 | –

Second part, the molecule after the results:

IC50 (LU65A; 24 hr) [nM] | IC50 (AGS; 24 hr) [nM] | IC50 (NCIH727; 24 hr) [nM] | IC50 (LU65A; Homo sapiens, 24 h) [nM] | IC50 (AGS; Homo sapiens, 24 h) [nM] | IC50 (NCIH727; Homo sapiens, NCI-H727, 24 h) [nM] | Structure (SMILES)
< 100 | < 100 | < 100 | – | – | – | C#Cc1c(F)ccc2cc(O)cc(-c3ncc4c(N5CC6CCC(C5)N6C(=O)CC(C)C#N)nc(OCC5(CN6CC7CC7C6)CC5)nc4c3OCc3ccc(-c4cn([C@H](C(=O)N5C[C@H](O)C[C@H]5C(=O)N[C@@H](CO)c5ccc(-c6ccnn6CC)cc5)C(C)C)nn4)cc3)c12 (stereo partly shown) [Compound 140]
– | – | – | < 100 | < 100 | < 100 | C#Cc1c(F)ccc2cc(O)cc(-c3nc(OC)c4c(N5CCCOCC5)nc(OCC5(CN6CCN(CC7CCN(c8ccc9c(c8)CN(C8CCC(=O)NC8=O)C9=O)CC7)CC6)CC5)nc4c3F)c12 (stereo not shown) [Compound 127]
– | – | – | < 100 | < 100 | < 100 | C#Cc1c(F)ccc2cc(O)cc(-c3nc(OC)c4c(N5CC6CCC(C5)N6C(=O)C[C@@H](C)C#N)nc(OCC5(CN6CCN(CN7CCC(N8Cc9cc%10c(cc9C8)C(=O)N(C8CCC(=O)NC8=O)C%10)CC7)CC6)CC5)nc4c3F)c12 (stereo partly shown) [Compound 162]
– | – | – | < 100 | < 100 | < 100 | C#Cc1c(F)ccc2cc(O)cc(-c3ncc4c(N5CC6CCC(C5)N6C(=O)CC(C)C#N)nc(OCC5(CN6CCN(CC7CCN(c8ccc9c(c8)CN(C8CCC(=O)NC8=O)C9=O)CC7)CC6)CC5)nc4c3F)c12 (stereo not shown) [Compound 129]
– | – | – | < 100 | < 100 | < 100 | C#Cc1c(F)ccc2cc(O)cc(-c3ncc4c(N5CC6CCC(C5)N6C(=O)CC(C)C#N)nc(OCC5(CN6CCN(CC7CCN(c8ccc9c(c8)n(C)c(=O)n9C8CCC(=O)NC8=O)CC7)CC6)CC5)nc4c3F)c12 (stereo not shown) [Compound 136]
– | – | – | 100 to 1000 | 100 to 1000 | 100 to 1000 | C#Cc1c(F)ccc2cc(O)cc(-c3ncc4c(N5CC6CCC(C5)N6C(=O)CC(C)C#N)nc(OCC5(CN6CCN(CC7CCN(c8ccc9c(c8)CN(C8CCC(=O)N(C)C8=O)C9=O)CC7)CC6)CC5)nc4c3F)c12 (stereo not shown) [Compound 130]

From patent US20260325654A1, “METHODS AND COMPOSITIONS FOR TARGETED PROTEIN DEGRADATION” (Ranok Therapeutics (Hangzhou) Co. Ltd., priority 2023, published 2026)
